Patent US20240148038A1, “TASTE-MASKING COMPOUNDS AND COMPOSITIONS AND USES THEREOF” (HEALTHTECH BIO ACTIVES, S.L.U., priority 2021, published 2024)

Experiments:
[1] = Masking bitterness of paracetamol: test panel, equibitter paracetamol solution; format: in vivo
Description: The bitter masking effect of hesperidin against paracetamol was assayed. The anti-bittering effect was measured as a dose-response profile vs. a solution of paracetamol.
A calibrated test panel compared each solution with several solutions of paracetamol in water at different concentrations and determined the equibitter paracetamol solution. The equibitter solution was calculated as the average of all the evaluations of the panel.
The masking effect or percentage of bitterness reduction was then calculated from the reference amount of paracetamol contained in each tested solution (5000 ppm) and the amount of paracetamol in the equibitter solution, using the following formula: […]
Thus, for example, a solution containing 5000 ppm of paracetamol and 250 ppm of hesperidin was equibitter to a solution containing 4000 ppm of paracetamol. Therefore, the masking effect was 20%.
The bitter masking effect of a racemic hesperidin (57% hesperidin 2S: 43% hesperidin 2R; purchased by HealthTech Bio Actives, S.L.U. Beniel, Spain) against paracetamol was also assayed. The anti-bittering effect was measured as a dose-response profile vs. a solution of paracetamol as described above.
Further, the bitter masking effect of a different flavonoid compound, neodiosmin (purchased by HealthTech Bio Actives, S.L.U. Beniel, Spain), was also tested. The anti-bittering effect was measured as a dose-response profile vs. a solution of paracetamol as explained before.

[2] = Panel evaluation in limonin solution (greening disease model); format: in vivo; conditions: 200 ppm H2S in limonin 50 ppm solution
Description: In order to determine the reduction in unpleasant taste impressions (bitterness) by hesperidin in a greening disease model, a limonin solution was prepared as indicated in Table 6. This solution was used for testing. Limonin (99.66%) was purchased from TargetMol.
The effect of H2S (200 ppm) in a limonin solution (50 ppm) was evaluated. A panel of experts was used to determine the reduction in unpleasant taste impressions of the limonin-containing preparation.

[3] = Panel evaluation in tonic water; format: in vivo; conditions: quinine salt 78 ppm
Description: NaOH:H2O solutions containing different concentrations (100 ppm and 200 ppm) of Hesperidin 2S were prepared as explained above (Table 1) and added to a tonic water samples prepared as indicated in Table 10 below:
A panel of experts was used to determine the reduction in unpleasant taste impression of the different samples.

[4] = Panel evaluation in orange juices containing oleuropeins; format: in vivo; conditions: orange juice with 500 ppm Olews 40%
Description: NaOH:H2O solutions containing different concentrations (100 ppm and 200 ppm) of Hesperidin 2S were prepared as explained above (Table 1) and added to orange juices containing 500 ppm Olews 40% (500 ppm Olews 40%=160 ppm oleuropein). Olews 40% provided by HealthTech Bio Actives S.L.U. (Beniel, Spain).
The taste masking effect against oleuropeins was assayed following an analogous procedure to the one used in Example 1 for paracetamol.
For each tested solution, a test panel determined the equibitter oleuropein solution, and the masking effect was calculated as explained in Example 1. A panel of experts was used to determine the reduction in unpleasant taste impressions of the orange juice preparations containing oleuropeins after addition of H2S.

[5] = Panel evaluation in fresh squeezed orange juices; format: in vivo; conditions: 100 ppm or 200 ppm H2S; fresh squeezed orange juice
Description: NaOH:H2O solutions containing different concentrations (100 ppm and 200 ppm) of Hesperidin 2S were prepared as explained above (Table 1) and added to fresh squeezed orange juices.
A panel of experts was used to determine the reduction in unpleasant tastes of the fresh squeezed orange juices after addition of different concentrations of H2S.

Solubility in water = format: physicochemical
Description: Hesperidin 2S has a very low solubility in water (less than 10 ppm). However, in presence of NaOH, its solubility increases. In order to study the component in liquid matrixes, a non-heated H2O—NaOH solution was prepared (Table 1).

[6] = Panel evaluation in protein milkshake; format: in vivo; conditions: 100 ppm or 200 ppm H2S
Description: NaOH:H2O solutions containing different concentrations (100 ppm and 200 ppm) of Hesperidin 2S were prepared as explained above (Table 1) and added to a protein milkshake prepared as indicated in Table 12 below.
The taste masking effect was assayed, following an analogous procedure to the one used in Example 1. A panel of experts was used to determine the reduction in unpleasant taste impressions of the protein milkshake preparations after addition of H2S.

[7] = Panel evaluation in crackers with reduced NaCl containing KCl; format: in vivo; conditions: 200 ppm H2S
Description: A dosage of 200 ppm of H2S was added to crackers with reduced content of sodium chloride (NaCl) and containing potassium chloride (KCl; Panreac). The composition of the crackers is disclosed in Table 4 below:
The taste masking effect was assayed, following an analogous procedure to the one disclosed in Example 1. A panel of experts was used to determine the reduction in unpleasant taste impressions of the potassium chloride-containing preparations after addition of H2S.

[8] = Panel evaluation in dark chocolate 95%; format: in vivo
Description: Reduction of unpleasant taste impressions in dark chocolate (95%) preparations was evaluated using different concentrations of H2S (100 ppm and 200 ppm).
Hesperidin 2S (dry powder) was incorporated into a sample of melted dark chocolate (95%). The liquid mass was cooled and mold, obtaining a solid chocolate.
A panel of experts was used to determine the reduction in unpleasant taste impressions of the dark chocolate (95%) preparations.

[9] = Panel evaluation in greening affected orange juices; format: in vivo; conditions: greening affected orange juice
Description: Orange Juice samples obtained from oranges from trees afflicted with greening disease were provided by F&M Solutions (Brasil). The juice samples were prepared by squeezing oranges collected from afflicted tree branches from local Brazilian farmers. The squeezed orange juice was bottled and pasteurized by standard methods well known in the art.
Different concentrations of Hesperidin 2S (100 ppm and 200 ppm) were evaluated in the orange juices from greening afflicted oranges.
A panel of experts was used to determine the reduction in unpleasant taste impressions of the different samples.

[10] = Panel evaluation in plant-based burger containing oleuropeins; format: in vivo; conditions: plant-based burger with 2000 ppm Olews 40%
Description: Reduction of unpleasant taste impression in a plant-based burger was evaluated using different concentrations of H2S (100 ppm and 200 ppm). Hesperidin 2S (dry powder) was incorporated into the preparations containing 2000 ppm Olews 40% provided by HealthTech Bio Actives, S.L.U. (Beniel, Spain) (2000 ppm Olews 40%=[…]) as indicated in Table 11 below:
A panel of experts was used to determine the reduction in unpleasant taste impressions of the plant-based burger preparations.

[11] = 50 ppm test substance in 5000 ppm paracetamol aqueous solution
[12] = 100 ppm test substance in 5000 ppm paracetamol aqueous solution
[13] = 250 ppm test substance in 5000 ppm paracetamol aqueous solution
[14] = 500 ppm test substance in 5000 ppm paracetamol aqueous solution
[15] = 10 ppm test substance in 5000 ppm paracetamol aqueous solution
[16] = 250 ppm test substance in 5000 ppm paracetamol aqueous solution, listed as hesperidin

## COc1ccc(-c2cc(=O)c3c(O)cc(O[C@@H]4O[C@H](CO)[C@@H](O)[C@H](O)[C@H]4O[C@@H]4O[C@@H](C)[C@H](O)[C@@H](O)[C@H]4O)cc3o2)cc1O [Neodiosmin, neodiosmin, reference compound]
[1]; [11]
  % of bitterness reduction: 12%
  Equibitter paracetamol concentration: 4400 ppm
[1]; [12]
  % of bitterness reduction: 12%
  Equibitter paracetamol concentration: 4400 ppm
[1]; [13]
  % of bitterness reduction: 16%
  Equibitter paracetamol concentration: 4200 ppm
[1]; [14]
  % of bitterness reduction: 24%
  Equibitter paracetamol concentration: 3800 ppm

## COc1ccc([C@@H]2CC(=O)c3c(O)cc(O[C@@H]4O[C@H](CO[C@@H]5O[C@@H](C)[C@H](O)[C@@H](O)[C@H]5O)[C@@H](O)[C@H](O)[C@H]4O)cc3O2)cc1O (racemic) [Racemic Hesperidin, hesperidin]
[1]; [15]
  % of bitterness reduction: 4%
  Equibitter paracetamol concentration: 4800 ppm
[1]; [11]
  % of bitterness reduction: 6%
  Equibitter paracetamol concentration: 4700 ppm
[1]; [12]
  % of bitterness reduction: 13%
  Equibitter paracetamol concentration: 4350 ppm
[1]; [13]
  % of bitterness reduction: 18%
  Equibitter paracetamol concentration: 4100 ppm

## COc1ccc([C@@H]2CC(=O)c3c(O)cc(O[C@@H]4O[C@H](CO[C@@H]5O[C@@H](C)[C@H](O)[C@@H](O)[C@H]5O)[C@@H](O)[C@H](O)[C@H]4O)cc3O2)cc1O (racemic) [Hesperidin 2S, (2S)-5-hydroxy-2-(3-hydroxy-4-methoxyphenyl)-7-[(2S,3R,4S,5S,6R)-3,4,5-trihydroxy-6-{[(2R,3R,4R,5R,6S)-3,4,5-trihydroxy-6-methyloxan-2-yl]oxymethyl}oxan-2-yl]oxy-2,3-dihydrochromen-4-one]
[2]
  % of bitterness reduction: 30%
  Equibitter: 35 ppm
[3]; 100 ppm H2S
  bitterness: significant reduction
[3]; 200 ppm H2S
  bitterness: reduction
[4]; 200 ppm H2S (FIG. 1B)
  orange notes: enhanced
  woody and bitter taste coming from the oleuropein masked: 40%
[4]; 200 ppm H2S as printed (FIG. 1A)
  woody and bitter taste: masked
[5]
  astringent and bitter taste: clearly reduced
Solubility in water; in presence of NaOH
  solubility in presence of NaOH: increases
Solubility in water; water
  solubility in water: less than 10 ppm
[6]
  bitter taste: reduced
  dry fava notes: reduced
[7]; KCl-containing crackers
  pungent and metallic notes: suppressed
[7]; crackers with reduced sodium chloride
  saltiness: increase
[8]; 200 ppm H2S
  bitterness and astringency: decreased
  flavonoid notes: not present
[8]; 200 ppm H2S as printed
  bitterness: decrease
  cocoa notes: slightly enhanced
[9]; 100 ppm H2S
  bitterness, acidity and astringency: significant reduction
  flavonoid note: noticeable
  green orange notes and bitter aftertaste: Reduction
  overall orange notes: slight reduction
[9]; 200 ppm H2S
  flavonoid note: increased
  green orange notes and bitter aftertaste: reduction
  overall orange notes: reduction
[9]; 200 ppm H2S, to a lesser extent than 100 ppm
  bitterness, acidity and astringency: reduction
[1]; [15]
  % of bitterness reduction: 5%
  Equibitter paracetamol concentration: 4750 ppm
[1]; [11]
  % of bitterness reduction: 11%
  Equibitter paracetamol concentration: 4450 ppm
[1]; [12]
  % of bitterness reduction: 20%
  Equibitter paracetamol concentration: 4000 ppm
[1]; [13]
  % of bitterness reduction: 37%
  Equibitter paracetamol concentration: 3150 ppm
[1]; 250 ppm test substance in 5000 ppm paracetamol aqueous solution, listed as H2S
  % of bitterness reduction: 37%
[1]; [16]
  % of bitterness reduction: 20%
  Equibitter paracetamol concentration: 4000 ppm
[1]; 250 ppm test substance in 5000 ppm paracetamol aqueous solution, listed as non-racemic hesperidin 2S
  % of bitterness reduction: 37%
[10]; 100 ppm H2S
  bitterness: decrease
  flavonoid notes: not present
  woody off-flavor notes: reduced
[10]; 200 ppm H2S
  bitterness and bean notes: decreased
  flavonoid notes: not present
  woody off-flavor notes: reduced
